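48-hour exposure; five concentrations; linearly interpolated endpoints. Abbreviation: GI50, concentration required for 50% inhibition of growth.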 The source made the active and inactive calls. No stated cut-off is given here; in the data, active = GI50 up to about 1.1 µM and inactive = higher.
Assays:
Assay in all cases: NCI-60 cell line screen, 48 h
SK-OV-3 = tested on: SK-OV-3
786-0 = tested on: 786-0
RPMI-8226 = tested on: RPMI-8226
HCT-116 = tested on: HCT-116
K562 = tested on: K562
NCI-H23 = tested on: NCI-H23
NCI-H226 = tested on: NCI-H226
HOP-62 = tested on: HOP-62
TK-10 = tested on: TK-10
CAKI-1 = tested on: CAKI-1
OVCAR-8 = tested on: OVCAR-8
SN12C = tested on: SN12C
IGROV-1 = tested on: IGROV-1
SF-295 = tested on: SF-295
SF-539 = tested on: SF-539
RXF 393 = tested on: RXF 393
SR = tested on: SR

Measured: GI50

COc1cccc2c1C1(O)C2CCCC12OCCCO2 (configuration not stated)
inactive: SK-OV-3 > 100 µM | 786-0 > 100 µM | RPMI-8226 > 100 µM | HCT-116 > 100 µM | K562 > 100 µM | NCI-H23 > 100 µM | NCI-H226 > 100 µM | HOP-62 > 100 µM | TK-10 > 100 µM | CAKI-1 > 100 µM | OVCAR-8 > 100 µM | SN12C > 100 µM | IGROV-1 > 100 µM | SF-295 > 100 µM | SF-539 > 100 µM | RXF 393 > 100 µM

Cc1nc(-n2nc(-c3ccccc3)cc2-c2ccccc2)sc1C(/C=C/c1ccc([N+](=O)[O-])cc1)=N/NC(N)=S
inactive: SK-OV-3 73.5 µM | 786-0 18.2 µM | RPMI-8226 11.9 µM | HCT-116 15.8 µM | K562 21.6 µM | NCI-H23 27.8 µM | NCI-H226 22.8 µM | HOP-62 14 µM | TK-10 > 100 µM | CAKI-1 60.3 µM | OVCAR-8 39.8 µM | SN12C > 100 µM | IGROV-1 35.2 µM | SF-295 45.8 µM | SF-539 28 µM | RXF 393 54.1 µM

Nc1ccccc1/C(O)=C1/CCOC1=O
inactive: SK-OV-3 > 100 µM | 786-0 > 100 µM | RPMI-8226 > 100 µM | HCT-116 > 100 µM | K562 > 100 µM | NCI-H23 > 100 µM | NCI-H226 > 100 µM | HOP-62 > 100 µM | TK-10 > 100 µM | SR > 100 µM | CAKI-1 > 100 µM | OVCAR-8 > 100 µM | SN12C > 100 µM | IGROV-1 > 100 µM | SF-295 > 100 µM

COC(=O)C1Cc2c(n(C)c3ccccc23)C(CCC(=O)O)N1Cc1ccccc1 (configuration not stated)
inactive: SK-OV-3 36.5 µM | 786-0 > 100 µM | RPMI-8226 16.1 µM | HCT-116 21.2 µM | K562 37 µM | NCI-H23 26.4 µM | NCI-H226 21.7 µM | HOP-62 > 100 µM | TK-10 55.8 µM | CAKI-1 37.2 µM | OVCAR-8 39.4 µM | SN12C 38.5 µM | IGROV-1 40.6 µM | SF-295 31 µM | SF-539 22.4 µM | RXF 393 28.6 µM

O=C(CCCC(=O)Nc1ccc(Cl)cc1Cl)CC(=O)c1ccc2ccccc2c1
inactive: SK-OV-3 > 100 µM | 786-0 > 100 µM | HCT-116 > 100 µM | K562 > 100 µM | NCI-H23 > 100 µM | NCI-H226 > 100 µM | HOP-62 > 100 µM | TK-10 > 100 µM | CAKI-1 > 100 µM | OVCAR-8 > 100 µM | SN12C > 100 µM | IGROV-1 > 100 µM | SF-295 > 100 µM | SF-539 > 100 µM | RXF 393 10.8 µM

CN1c2ccccc2NC(CC(=O)O)C2CC=CN21 (configuration not stated)
inactive: SK-OV-3 > 100 µM | 786-0 > 100 µM | RPMI-8226 > 100 µM | K562 > 100 µM | NCI-H23 > 100 µM | HOP-62 > 100 µM | TK-10 > 100 µM | CAKI-1 > 100 µM | OVCAR-8 > 100 µM | SN12C > 100 µM | IGROV-1 > 100 µM | SF-295 > 100 µM | SF-539 > 100 µM | RXF 393 > 100 µM

O=C(CC(=O)N1N=C(c2ccccc2)C(/N=N/c2ccc(C(=O)O)cc2)C1=O)Nc1ccc(F)cc1 (configuration not stated)
inactive: SK-OV-3 12.2 µM | 786-0 21.2 µM | RPMI-8226 27.5 µM | HCT-116 12.2 µM | K562 18.9 µM | NCI-H23 23.4 µM | NCI-H226 6.15 µM | TK-10 33.1 µM | CAKI-1 7.55 µM | OVCAR-8 40.8 µM | SN12C 38.9 µM | IGROV-1 22.5 µM | SF-295 36.9 µM | SF-539 13.4 µM | RXF 393 4.01 µM

CN(/N=C\c1ccnc2ccccc12)c1ccc([N+](=O)[O-])cc1
inactive: SK-OV-3 > 100 µM | 786-0 > 100 µM | RPMI-8226 8.26 µM | HCT-116 11.6 µM | K562 25.3 µM | NCI-H23 > 100 µM | NCI-H226 > 100 µM | HOP-62 > 100 µM | TK-10 > 100 µM | CAKI-1 > 100 µM | OVCAR-8 95.7 µM | SN12C > 100 µM | IGROV-1 > 100 µM | SF-295 75.2 µM | SF-539 27 µM | RXF 393 > 10 µM

Cc1cccc(C(C)(C)C)c1NC(=O)CC1C(=O)Nc2ccccc2[S+]1[O-] (configuration not stated)
inactive: 786-0 > 100 µM | RPMI-8226 34.3 µM | HCT-116 40.6 µM | K562 34.1 µM | NCI-H23 26.4 µM | NCI-H226 69.3 µM | HOP-62 > 100 µM | TK-10 46.5 µM | SR 24.9 µM | CAKI-1 39.3 µM | OVCAR-8 97.1 µM | SN12C 55.8 µM | SF-295 62.8 µM | SF-539 75.7 µM
